Legend:
[1] = Solubility (appearance / physicochemical properties); details: for Solubility in organic solvents: medium-polar and polar organic solvents
[2] = Stability in solution (appearance / physicochemical properties)
[3] = biological target: T1, amyloid precursor protein - FE65 interaction (Homo sapiens, UniProt O00213); test: Test for the ability to inhibit the APP-FE65 interaction (energy transfer, Eu-cryptate/XL665); type: binding; details: for IC50: biotin-cAPP / GST-PTB2, emission at 665 nm and 615 nm, read-out: Inhibition of the amyloid precursor protein - FE65 interaction, IC50
T1 construct: 1 μL of GST-PTB2 (20 nM in Buffer A) was added
T1 sequence (O00213 542-699 limits assumed): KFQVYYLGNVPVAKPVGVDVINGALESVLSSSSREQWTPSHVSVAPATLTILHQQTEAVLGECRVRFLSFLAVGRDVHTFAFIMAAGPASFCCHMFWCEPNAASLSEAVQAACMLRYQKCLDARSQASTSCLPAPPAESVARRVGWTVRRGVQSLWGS
Protocol: Test for the Ability to Inhibit the APP-FE65 Interaction
1 μl of the solution to be tested was pipetted, together with 30 μM 32 mer cAPP in Buffer A, into a microtiter plate. 1 μl of biotin-cAPP (10 nM, dissolved in Buffer A) was then added. After incubating for 15 minutes, 1 μL of GST-PTB2 (20 nM in Buffer A) was added and the plate was incubated once again for 15 minutes. 4 μl of antibody mixture (Streptavidin labeled with Eu-cryptate, […] per well; monoclonal anti-GST antibody labeled with XL665, […] in Buffer B) were then added. After 30 minutes at room temperature, the emission signal of the energy transfer, and the europium signal, were measured at 665 nm and 615 nm in a Tecan ultraphotometer after the test solution had been activated with light at a wavelength of 340 nm.
The IC50 values listed in Table 1 were found for the inhibition of the amyloid precursor protein—FE65 interaction.

| Solubility in organic solvents [1] | Solubility in water [1] | Stability in neutral and mildly acidic medium [2] | Stability in strongly acid and strongly alkaline solutions [2] | IC50 [3] [µM] | SMILES | Inhibition of the APP-FE65 interaction (in words) [3] |
| --- | --- | --- | --- | --- | --- | --- |
| soluble | not particularly soluble | Stable | unstable | 2.3 | CC(=O)NCC(=O)N/C(=C\SC/C=C(\C)CC/C=C(\C)CCC=C(C)C)C(=O)O [Coniosulfide A] |  |
| soluble | not particularly soluble | Stable | unstable | 2.6 | CC(=O)NCC(=O)N/C(=C\SC/C=C(\C)CC/C=C(\C)CCC(C)=C(C)C)C(=O)O [Coniosulfide B] |  |
| soluble | not particularly soluble | Stable | unstable | 3.8 | CC(=O)NCC(=O)NCC(=O)N/C(=C\SC/C=C(\C)CC/C=C(\C)CCC=C(C)C)C(=O)O [Coniosulfide C] |  |
| soluble | not particularly soluble | Stable | unstable | 3.8 | CC(=O)NCC(=O)NCC(=O)N/C(=C\SC/C=C(\C)CC/C=C(\C)CCC(C)=C(C)C)C(=O)O [Coniosulfide D] |  |

| SMILES | Solubility in organic solvents [1] | Solubility in water [1] | Stability in neutral and mildly acidic medium [2] | Stability in strongly acid and strongly alkaline solutions [2] | IC50 [3] [µM] | Inhibition of the APP-FE65 interaction (in words) [3] |
| --- | --- | --- | --- | --- | --- | --- |
| C/C=C/C=C/C1C(C)=CC2CC(C)CCC2C1(C)/C(O)=C1\C(=O)NC(C(C)O)C1=O (centres unmarked) [Coniosetin, coniosetin] | soluble | not particularly soluble | Stable | unstable | 28 | inhibits the APP-FE65 reaction |
